Experiments:
[1] = target: T1, yeast Gal4-DNA binding domain fused to the ligand binding domain of human RORγ (Homo sapiens, UniProt P51449); test: RORγ Reporter Assay (Gal4); type: cell-based; settings: values given as lower bounds of ranges; for Gal4 activity range @ 1 μM (% inhibition): RORγ Reporter Assay (Gal4) at 1 μM; for Gal4 activity range @ 0.1 μM (% inhibition): RORγ Reporter Assay (Gal4) at 0.1 μM
T1 construct: host or cells: HEK293t
T1 sequence (P51449 269-508 limits assumed): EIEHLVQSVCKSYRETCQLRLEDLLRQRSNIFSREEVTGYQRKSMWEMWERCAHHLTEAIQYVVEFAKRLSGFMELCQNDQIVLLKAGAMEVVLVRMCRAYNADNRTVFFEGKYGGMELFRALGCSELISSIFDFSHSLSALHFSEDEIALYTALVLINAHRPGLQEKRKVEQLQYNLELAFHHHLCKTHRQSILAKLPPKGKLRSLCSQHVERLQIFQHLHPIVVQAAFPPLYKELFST
Description: The activity of the compounds was evaluated using a Fluorescence Polarization (FP) Assay and, in most cases, a Th17 Assay and/or RORγ Reporter assay (also referred to as Gal4 assay). The FP assay is an in vitro assay monitoring binding within the ligand binding pocket. The RORγ and the Th17 assays are both cell-based assays monitoring functional activity of the compound assayed.
Cell-based RORγ functional assays were performed using a commercially available assay product (INDIGO Biosciences, State College, Pa., USA; product # IB04001). The RORγ reporter cells are HEK293t cells transfected with one vector that provides high level constitutive expression of a hybrid protein comprised of the yeast Gal4-DNA binding domain fused to the ligand binding domain of human RORγ, and a second vector comprising the firefly luciferase cDNA functionally linked to the upstream activation sequence (UAS) of yeast Gal4. A suspension of RORγ Reporter Cells was prepared using the protocol and culture medium provided in the kit product, and 100 μl of the Reporter Cell suspension was then dispensed into wells of a white, collagen-treated, 96-well assay plate. Concentrated stocks of test compounds were prepared in DMSO, then further diluted using media provided in the kit to generate ‘2×-concentration’ treatment media. 100 μl of medium for each respective treatment concentration dispensed into triplicate assay wells, thereby combining with the reporter cells. All media formulations contained 10% charcoal stripped Fetal Bovine Serum, but are otherwise proprietary to INDIGO Biosciences. Final treatment concentrations for each test compound were 1,000 nM and 100 nM, each with 0.1% residual DMSO. Separate control treatments were media supplemented with vehicle only (0.1% DMSO) to determine the constitutive level of RORγ activity in the reporter cells, and the reference inverse-agonist ursolic acid (f.c. 6,000 nM to 8.2 nM in 3-fold decrements) to establish a positive control inverse-agonist dose response. Assay plates were placed in a 37° C., 5% CO2, 85% humidity incubator for 24 hour. Treatment media were then discarded, 100 μl of luciferase detection reagent was added to each well, and relative light units (RLUs) were quantified from each assay well using a plate reading luminometer. Values of average RLU+/−standard deviation were computed for all treatment sets, followed by the calculations of fold-reduction: [Average RLUVehicle/Average RLUTest Cmpd]. Percent-reduction of RORγ activity in response to respective test compound treatments was calculated: [100*(1−[Ave RLUTest Cmpd/Ave RLUVehicle)] where the theoretical minimum reduction (0% reduction) derives from Vehicle treatment only, no treatment compound.

[2] = target: T2, human RORγt (Ligand Binding Domain) (Homo sapiens, UniProt P51449); test: Fluorescence Polarization (FP) Assay; settings: Fluorescence Polarization (FP) Assay; values given as upper bounds of activity ranges; read-out: FP activity range
T2 construct: purchased Crelux (Planegg, Germany) batch no PC5032-1
T2 sequence (P51449 269-508 limits assumed): T1 sequence (P51449 269-508 limits assumed)
Method in brief: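 Binding to the ligand pocket followed by fluorescence polarization with a TAMRA-tagged RORγt ligand probe of 910 g/mole. Negative control wells received DMSO only.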

CNC(=O)[C@@H](CC(C)(C)C)N(C)c1ncnc(N2CCCC2c2ccc(C(F)(F)F)cc2)c1F (stereo partly drawn) [Example 31, (2R)-2-[[5-fluoro-6-[2-[4-(trifluoromethyl)phenyl]pyrrolidin-1-yl]pyrimidin-4-yl]-methyl-amino]-N,4,4-trimethyl-pentanamide]
Gal4 activity range @ 1 μM (% inhibition) [1]: >0 % inhibition
IC50 [2]: < 10000 nM

CC(C)(C)C[C@@H](Nc1ccnc(N2CCCC2c2ccc(C(F)(F)F)cc2)c1F)C(N)=O (stereo partly drawn) [Example 39, (2R)-2-[[3-fluoro-2-[2-[4-(trifluoromethyl)phenyl]pyrrolidin-1-yl]-4-pyridyl]amino]-4,4-dimethyl-pentanamide]
Gal4 activity range @ 1 μM (% inhibition) [1]: >20 % inhibition
IC50 [2]: < 10000 nM

CC(C)(C)C[C@@H](Nc1ncnc(N2CCCC2c2ccc(C(F)(F)F)cn2)c1F)C(N)=O (stereo partly drawn) [Example 42, (2R)-2-[[5-fluoro-6-[2-[5-(trifluoromethyl)-2-pyridyl]pyrrolidin-1-yl]pyrimidin-4-yl]amino]-4,4-dimethyl-pentanamide]
Gal4 activity range @ 1 μM (% inhibition) [1]: >20 % inhibition
IC50 [2]: < 2000 nM

CC(C)(C)C[C@@H](Nc1ncnc(N2CCCC2c2ccc(OC(C)(C)C)cc2)c1F)C(N)=O (stereo partly drawn) [Example 43, (2R)-2-[[6-[2-(4-tert-butoxyphenyl)pyrrolidin-1-yl]-5-fluoro-pyrimidin-4-yl]amino]-4,4-dimethyl-pentanamide]
Gal4 activity range @ 1 μM (% inhibition) [1]: >80 % inhibition
IC50 [2]: < 1000 nM

CC(OC(C)(C)C)[C@@H](Nc1ncnc(N2CCCC2c2ccc(C(F)(F)F)cc2)c1F)C(N)=O (stereo partly drawn) [Example 51, (2R)-3-tert-butoxy-2-[[5-fluoro-6-[2-[4-(trifluoromethyl)phenyl]pyrrolidin-1-yl]pyrimidin-4-yl]amino]butanamide]
Gal4 activity range @ 1 μM (% inhibition) [1]: >80 % inhibition
IC50 [2]: < 1000 nM

NC(=O)[C@@H](CC1CCOCC1)Nc1ncnc(N2CCCC2c2ccc(C(F)(F)F)cc2)c1F (stereo partly drawn) [Example 52, (2R)-2-[[5-fluoro-6-[2-[4-(trifluoromethyl)phenyl]pyrrolidin-1-yl]pyrimidin-4-yl]amino]-3-tetrahydropyran-4-yl-propanamide]
Gal4 activity range @ 1 μM (% inhibition) [1]: >80 % inhibition
IC50 [2]: < 2000 nM

COc1ccc(CNc2ncnc(N3CCCC3c3ccc(C(F)(F)F)cc3)c2F)cc1OC (stereo not drawn) [Example 53, N-[(3,4-dimethoxyphenyl)methyl]-5-fluoro-6-[2-[4-(trifluoromethyl)phenyl]pyrrolidin-1-yl]pyrimidin-4-amine]
Gal4 activity range @ 1 μM (% inhibition) [1]: >20 % inhibition
IC50 [2]: < 1000 nM

COc1cccc(CNc2ncnc(N3CCCC3c3ccc(C(F)(F)F)cc3)c2F)c1OC (stereo not drawn) [Example 54, N-[(2,3-dimethoxyphenyl)methyl]-5-fluoro-6-[2-[4-(trifluoromethyl)phenyl]pyrrolidin-1-yl]pyrimidin-4-amine]
Gal4 activity range @ 1 μM (% inhibition) [1]: >50 % inhibition
IC50 [2]: < 1000 nM

Fc1c(NCc2ccc(N3CCOCC3)cc2)ncnc1N1CCCC1c1ccc(C(F)(F)F)cc1 (stereo not drawn) [Example 56, 5-fluoro-N-[(4-morpholinophenyl)methyl]-6-[2-[4-(trifluoromethyl)phenyl]pyrrolidin-1-yl]pyrimidin-4-amine]
Gal4 activity range @ 1 μM (% inhibition) [1]: >20 % inhibition
IC50 [2]: < 2000 nM

O=C1CN(c2ccc(CNc3ncnc(N4CCCC4c4ccc(C(F)(F)F)cc4)c3F)cc2)CCN1 (stereo not drawn) [Example 60, 4-[4-[[[5-fluoro-6-[2-[4-(trifluoromethyl)phenyl]pyrrolidin-1-yl]pyrimidin-4-yl]amino]methyl]phenyl]piperazin-2-one]
Gal4 activity range @ 1 μM (% inhibition) [1]: >20 % inhibition
IC50 [2]: < 2000 nM

NC(=O)[C@@H](CC1CCNC1=O)Nc1ncnc(N2CCCC2c2ccc(C(F)(F)F)cc2)c1F (stereo partly drawn) [Example 63, (2R)-2-[[5-fluoro-6-[2-[4-(trifluoromethyl)phenyl]pyrrolidin-1-yl]pyrimidin-4-yl]amino]-3-(2-oxopyrrolidin-3-yl)propanamide]
Gal4 activity range @ 1 μM (% inhibition) [1]: >20 % inhibition
IC50 [2]: < 2000 nM

CC(C)(C)C[C@@H](Nc1ncnc(N2CCCC2c2ccc(C(F)(F)F)cc2)c1F)C1CNCCO1 (stereo partly drawn) [Example 64, N-[(1R)-3,3-dimethyl-1-morpholin-2-yl-butyl]-5-fluoro-6-[2-[4-(trifluoromethyl)phenyl]pyrrolidin-1-yl]pyrimidin-4-amine]
Gal4 activity range @ 1 μM (% inhibition) [1]: >20 % inhibition
IC50 [2]: < 2000 nM

COc1cc(C(F)(F)F)ccc1C1CCCN1c1ncnc(N[C@H](CC(C)(C)C)C(N)=O)c1F (stereo partly drawn) [Example 65, (2R)-2-[[5-fluoro-6-[2-[2-methoxy-4-(trifluoromethyl)phenyl]pyrrolidin-1-yl]pyrimidin-4-yl]amino]-4,4-dimethyl-pentanamide]
Gal4 activity range @ 1 μM (% inhibition) [1]: >20 % inhibition
IC50 [2]: < 500 nM

Cc1ccc(CNc2nccc(N3CCCC3c3ccc(C(F)(F)F)cc3)c2F)cn1 (stereo not drawn) [Example 66, 3-fluoro-N-[(6-methyl-3-pyridyl)methyl]-4-[2-[4-(trifluoromethyl)phenyl]pyrrolidin-1-yl]pyridin-2-amine]
Gal4 activity range @ 1 μM (% inhibition) [1]: >50 % inhibition
IC50 [2]: < 2000 nM

CC(C)(C)C[C@@H](Nc1ncnc(N2CCOCC2c2ccc(OC(F)(F)F)cc2)c1F)C(N)=O (stereo partly drawn) [Example 68, (2R)-2-[[5-fluoro-6-[3-[4-(trifluoromethoxy)phenyl]morpholin-4-yl]pyrimidin-4-yl]amino]-4,4-dimethyl-pentanamide]
Gal4 activity range @ 1 μM (% inhibition) [1]: >80 % inhibition
IC50 [2]: < 2000 nM

COc1ccc(Cn2ccc3c(N4CCCC4c4ccc(C(F)(F)F)cc4)ncnc32)cc1OC (stereo not drawn) [Example 69, 7-[(3,4-dimethoxyphenyl)methyl]-4-[2-[4-(trifluoromethyl)phenyl]pyrrolidin-1-yl]pyrrolo[2,3-d]pyrimidine]
Gal4 activity range @ 1 μM (% inhibition) [1]: >50 % inhibition
IC50 [2]: < 1000 nM

CC(C)(C)C[C@@H](Nc1ncnc(N2CCCC2c2ccc(C(F)(F)F)c(F)c2)c1F)C(N)=O (stereo partly drawn) [Example 72, (2R)-2-[[5-fluoro-6-[2-[3-fluoro-4-(trifluoromethyl)phenyl]pyrrolidin-1-yl]pyrimidin-4-yl]amino]-4,4-dimethyl-pentanamide]
Gal4 activity range @ 1 μM (% inhibition) [1]: >80 % inhibition
IC50 [2]: < 1000 nM

Cc1ccc(COc2ncnc(N3CCCC3c3ccc(C(F)(F)F)c(F)c3)c2F)cn1 (stereo not drawn) [Example 73, 5-fluoro-4-[2-[3-fluoro-4-(trifluoromethyl)phenyl]pyrrolidin-1-yl]-6-[(6-methyl-3-pyridyl)methoxy]pyrimidine]
Gal4 activity range @ 0.1 μM (% inhibition) [1]: >0 % inhibition
Gal4 activity range @ 1 μM (% inhibition) [1]: >20 % inhibition
IC50 [2]: < 2000 nM

Cc1ccc(COc2ncnc(N3CCCC3c3ccc(C(F)(F)F)cc3)c2F)cn1 (stereo not drawn) [Example 74, 5-fluoro-4-[(6-methyl-3-pyridyl)methoxy]-6-[2-[4-(trifluoromethyl)phenyl]pyrrolidin-1-yl]pyrimidine]
Gal4 activity range @ 1 μM (% inhibition) [1]: >80 % inhibition
IC50 [2]: < 2000 nM

COc1ccc(C2CCCN2c2ncnc(NCc3ccc(C)nc3)c2F)cc1 (stereo not drawn) [Example 90, 5-fluoro-6-[2-(4-methoxyphenyl)pyrrolidin-1-yl]-N-[(6-methyl-3-pyridyl)methyl]pyrimidin-4-amine]
Gal4 activity range @ 0.1 μM (% inhibition) [1]: >0 % inhibition
Gal4 activity range @ 1 μM (% inhibition) [1]: >20 % inhibition
IC50 [2]: < 1000 nM

CC1CCC(CNc2ncnc(N3CCCC3c3ccc(C(F)(F)F)cc3)c2F)CC1 (stereo not drawn) [Example 93, 5-fluoro-N-[(4-methylcyclohexyl)methyl]-6-[2-[4-(trifluoromethyl)phenyl]pyrrolidin-1-yl]pyrimidin-4-amine]
Gal4 activity range @ 0.1 μM (% inhibition) [1]: >0 % inhibition
Gal4 activity range @ 1 μM (% inhibition) [1]: >50 % inhibition
IC50 [2]: < 500 nM

From patent publication US10689383B2, “Optionally fused heterocyclyl-substituted derivatives of pyrimidine useful for the treatment of inflammatory, metabolic, oncologic and autoimmune diseases” (NUEVOLUTION A/S, priority 2014, dated 2020)
